Measurements taken from patent publication US11331290B2, “Niclosamide for the treatment of cancer metastasis” (Max-Delbrück-Centrum für Molekulare Medizin in der …, priority 2011, dated 2022).

Tests used:
Format in all cases: cell-based, human
LS174T cells = experiment: Boyden chamber transwell migration assay; settings: 1 μM, 24 h
Description: (§1) HCT116, SW620, LS174T, SW480 and DLD-1 cells were used in cell migration and invasion analysis performed with Boyden chamber assay. 400 μL containing 2.5×10^5 cells were seeded into each transwell chamber with filter membranes of 12.0 μm pore size (Millipore, Schwalbach, Germany). For invasion filter membranes were coated with 50 μL Matrigel (diluted 1:3 in RPMI-1640; BD Biosciences) 10 minutes before cells were seeded. Fresh medium (600 μL) were added to the bottom chamber and cells were allowed to attach to the insets for 15 hours. Both chambers were treated with 1 μM niclosamide or the respective amount of DMSO and incubated at 37° C. and 5% CO2 in a humidified incubator for 24 hours. Afterwards insets were removed and cells that had migrated through the membrane to the lower chamber were trypsinized and counted in a Neubauer chamber (LO-Laboroptik, Bad Homburg, Germany). Each well was counted ten times. Each migration or invasion experiment was performed in duplicate. The average number of migrated or invaded cells was determined for at least three independent experiments.
(§2) (A) S100A4 expression under niclosamide treatment. Cells were treated with 1 μM niclosamide for 24 hours. S100A4 expression was analyzed with qRT-PCR and immunoblot. (B) Cell migration under niclosamide treatment. Migration rates of cells treated with 1 μM niclosamide for 24 hours were determined in a Boyden chamber assay values were normalized to solvent-treated SW620 cells. (C) Cell invasion under niclosamide treatment. Cells were seeded onto Matrigel covered transwells and treated with 1 μM niclosamide for 24 hours. Invaded cells in the lower chamber were counted and normalized to solvent-treated SW620 cells. Differences in solvent vs. niclosamide-treated cells were analyzed by Student's t test. Data represent mean±SE of at least two independent experiments each performed in triplicate. (D) Directed migration under niclosamide treatment. Wounds of 300 μM width were set in a 60% confluent monolayer of cells on day 1. Cells were treated daily with 1 μM niclosamide for 4 days. Microphotographs of day 4 are presented here with black lines indicating margins of the wound on day 1; scale bar represents 200 μM. Directed migration data shown are representatives of three independent experiments. (E) Adhesive cell proliferation under niclosamide treatment. Cells were treated daily with 1 μM niclosamide. The amount of viable cells per well was determined by MTT assay. (F) Anchorage-independent cell growth under niclosamide treatment. Cells were plated as single cells into 0.33% (w/v) agarose and treatment (solvent or 1 μM niclosamide) containing medium. After 7 days colonies were visualized by light microscopy at 10× (overview) and 40× (single colony) magnification. (G) Quantification of colonies formed. Number of colonies (of more than 4 cells) was counted and normalized to solvent-treated SW620 cells. Differences in solvent vs. niclosamide-treated cells were analyzed by Student's t test. Data represent mean mean±SE of at least two independent experiments each performed in duplicates.

SW620 cells = experiment: Boyden chamber transwell migration assay; settings: 1 μM, 24 h
Description: as §1, §2

DLD-1 cells = experiment: Boyden chamber transwell migration assay; settings: 1 μM, 24 h
Description: as §1, §2

SW480 cells = experiment: Boyden chamber transwell migration assay; settings: 1 μM, 24 h
Description: as §1, §2

S100A4 promoter = experiment: High-throughput screening, S100A4 promoter-driven luciferase reporter; settings: HCT116-S100A4p-LUC cells, 20-concentration rescreen, 2-fold dilutions from 100 μM, 24 h
Description: HCT116-S100A4p-LUC colon cancer cells stably expressing a human S100A4 promoter-driven luciferase reporter gene construct were screened with the Library of Pharmacologically Active Compounds (LOPAC; FIG. 1, A). The LOPAC Library represents a collection of 1280 well characterized small molecule inhibitors. […] In parallel, cell viability was determined using the Alamar blue assay to evaluate whether some of the inhibitory effects were caused by cytotoxicity (data not shown). […]
For high-throughput screening 2.5×10^3 cells per well of HCT116-S100A4p-LUC cells were seeded into white opaque 384-well plates (Perkin Elmer, Waltham, Mass.) using the BIOMEK 2000 automatic pipetting system (Beckman Coulter, Brea, Calif.). […] Following compound treatment, luciferase expression was determined using Britelite reagent (Perkin Elmer) in a Wallac Victor reader (Perkin Elmer). In parallel, cytotoxicity of the compounds was measured in clear polystyrene 384-well plates (Costar) by Alamar blue cytotoxicity assay (Sigma-Aldrich). […] Plates were then read on a Wallac Victor reader at an excitation wavelength of 530 nm and emission wavelength of 590 nm. For both luminescence and Alamar blue fluorescence data, eight vehicle control wells were averaged and test compound results (single well) expressed as percent of control. […]

Structure (SMILES): O=C(Nc1ccc([N+](=O)[O-])cc1Cl)c1cc(Cl)ccc1O [niclosamide, 2′,5-dichloro-4′-nitrosalicylanilide]
- migration, mean difference control vs niclosamide (LS174T cells): 41.3%
- cell migration rate, mean % (normalized to solvent-treated SW620 cells) (LS174T cells; solvent control 68.2%): 26.8%
- migration, mean difference control vs niclosamide (SW620 cells): 52.1%
- cell migration rate, mean % (normalized to solvent-treated SW620 cells) (SW620 cells; solvent control 100.0%): 47.9%
- cell migration rate (DLD-1 cells): not further affected
- migration, mean difference control vs niclosamide (SW480 cells): 11.1%
- cell migration rate, mean % (normalized to solvent-treated SW620 cells) (SW480 cells; solvent control 21.7%): 10.6%
- inhibition of reporter gene expression (S100A4 promoter): strongest candidate
